Counter-ions that a name gives are not always drawn.
Key:
[1] = tested on: SP-induced plasma protein extravasation; assay: Antagonism of SP-induced plasma protein extravasation in guinea pig trachea (Evans Blue dye); assay type: in vivo; conditions: Figure 2; i.v.; result in words
Description: SP-induced protein leakage through postcapillary venules was assessed by measuring Evans Blue dye accumulation in guinea pig trachea. Animals were anesthetized with pentobarbital then injected with Evans Blue dye (20 mg/kg, i.v., prepared in 0.9% NaCl solution). One minute after dye administration, the antagonist was administered (i.v.) followed by SP (0.3 nmole/kg, i.v.) and, after 5 min, excess dye removed from the circulation by transcardiac perfusion with 50 ml 0.9% NaCl solution. The trachea and primary bronchi were removed, blotted dry and weighed. Dye quantitation was performed spectrophotometrically (620 nm) after extracting tissues in formamide for 24 hr at 50°C. Values were subtracted from background (dye only, no agonist). ED50 (dose of compound which inhibits SP-induced plasma protein extravasation by 50%) was calculated from linear regression analysis.
Values are mean (95% confidence limits). Compounds were injected intravenously 2 min prior to SP administration. ED50 values are based on at least 3 doses; at least 4 animals were used per dose.

[2] = tested on: capsaicin-induced respiratory effects; assay: Antagonism of capsaicin aerosol induced respiratory effects in conscious guinea pigs (whole body plethysmography); assay type: in vivo, guinea pig; conditions: for DYSPNEA ONSET / MAXIMUM PRESSURE INCREASE (mmH2O) / SRE NUMBER*: mean and SEM; for SRE NUMBER*: number of coughs/gasps during 19 min exposure
Description: In vivo experiments were performed using male Duncan Hartley guinea pigs (250-350g). Changes in conscious breathing patterns were monitored in four animals simultaneously using modified whole body plethysmography consisting of four small plexiglass boxes each connected to a reference box via Validyne DP 45-16 differential pressure transducers. The 4 boxes were equipped with an air supply line (also used for aerosol delivery) and an exhaust air line. Supply and exhaust lines were of the same length and narrow bore and arose from a common supply chamber and vented to a common exhaust chamber. This system was used to ensure that fluctuations in supply air and atmospheric pressure would remain in phase and be eliminated from the net signal by the differential pressure transducers. The analog pressure signals were digitalized via a Data Translation DT2821 A to D board. Data were collected at a rate of 100 samples/second/animal. Each cycle of pressure change was analyzed using the following parameters: rising and falling slope determined between minimum and maximum pressures, the ratio of rising over falling slope, and the magnitude of the change between initial trough pressure and peak cycle pressure. Using these values (and observing the animals) the pressure cycles were characterized into normal breaths, forced exhalations (apparent by abdominal heaving), significant respiratory events (SREs; usually coughs, less often sneezes or gasps which were characterized by transient, extremely large pressure increases which were distinguishable from noise) and movement/noise with a PCAT 286 running a System V UNIX operating system. Dyspnea was defined as a significant, sustained increase in plethysmograph pressure which was associated with an observable shift to labored breathing in the animal.
During the course of a typical experiment in which airway responsiveness to various bronchoconstricting agents was examined, aerosols were delivered for 19 min (0.33 ml/min) using a DeVilbiss Ultraneb 99 ultrasonic nebulizer and animals monitored during this time. Prior to nebulization, 1 min of resting breathing was collected to establish a baseline pressure. […] The vehicle for nebulization of all bronchoconstrictive agents was phosphate buffered saline (pH 7.4) which elicited no respiratory effects itself. Putative tachykinin antagonists were administered either (i.v.) 20 min prior to onset of aerosol exposure or orally 1 hour prior to onset (to guinea pigs after an overnight fast).
Capsaicin aerosol is known to promote release of the tachykinins SP and NKA from sensory nerves in the airways of guinea pigs which may then act upon NK1 and NK2 receptors, respectively to elicit respiratory effects. […]
(§1) Values are mean and SEM of data derived from number of animals indicated in parenthesis. Putative tachykinin antagonists were administered intravenously 20 min prior to initiation of capsaicin aerosol (0.001%). *SRE number indicates the number of coughs/gasps which occurred during the 19 min capsaicin exposure period.
as §1, with “by oral gavage 1 hr” for “intravenously 20 min”

[3] = 10 mg/kg intravenously 20 min prior to capsaicin aerosol (0.001%)
[4] = 25 mg/kg by oral gavage 1 hr prior to capsaicin aerosol (0.001%)
[5] = 50 mg/kg by oral gavage 1 hr prior to capsaicin aerosol (0.001%)
[6] = 100 mg/kg by oral gavage 1 hr prior to capsaicin aerosol (0.001%)

SMILES | antagonism of SP-induced plasma protein extravasation in guinea pig trachea [1] | DYSPNEA INCIDENCE [2, 3] | DYSPNEA ONSET [2, 3] | MAXIMUM PRESSURE INCREASE (mmH2O) [2, 3] | SRE NUMBER* [2, 3] | DYSPNEA INCIDENCE [2, 4] | DYSPNEA ONSET [2, 4] | MAXIMUM PRESSURE INCREASE (mmH2O) [2, 4] | SRE NUMBER* [2, 4] | DYSPNEA INCIDENCE [2, 5] | DYSPNEA ONSET [2, 5] | MAXIMUM PRESSURE INCREASE (mmH2O) [2, 5] | SRE NUMBER* [2, 5] | DYSPNEA INCIDENCE [2, 6] | DYSPNEA ONSET [2, 6] | MAXIMUM PRESSURE INCREASE (mmH2O) [2, 6] | SRE NUMBER* [2, 6]
COc1cc(C(=O)N2CCC(CCN3CCC(C(N)=O)(c4ccccc4)CC3)(c3ccc(Cl)c(Cl)c3)C2)cc(OC)c1OC (centres unmarked) [Example 3, 1-[2-[3-(3,4-dichloro-phenyl)-1-(3,4,5-trimethoxy-benzoyl)-pyrrolidin-3-yl]-ethyl]-4-phenyl-piperidine-4-carboxylic acid amide] | dose related antagonism | – | – | – | – | – | – | – | – | – | – | – | – | – | – | – | –
COc1cc(C(=O)N2CCC(CCN3CCC(C(N)=O)(c4ccccc4)CC3)(c3ccc(Cl)c(Cl)c3)C2)cc(OC)c1OC (racemic) [Example 3A, 1-[2-[3-(3,4-dichloro-phenyl-3-yl)-1-(3,4,5-trimethoxy-benzoyl)-pyrrolidin-3-yl]-ethyl] -4-phenyl-piperidine-4-carboxylic acid amide hydrochloride] | – | 89% (7/8) | 480 ± 80 s | 0.83 ± 0.18 mmH2O | 8.50 ± 1.9 | 80% (8/10) | 424 ± 120 s | 0.7 ± 0.2 mmH2O | 4.6 ± 1.0 | 70% (7/10) | 434 ± 152 s | 0.4 ± 0.1 mmH2O | 2.8 ± 0.8 | 50% (5/10) | 360 ± 120 s | 0.4 ± 0.1 mmH2O | 2.1 ± 0.5
